Experimental findings from PubChem BioAssay AID322 (DTP/NCI, 2004) are described below.

Molecules are shown by their SMILES. Where “and” joins values, the source holds several entries; their conditions need not be identical. Equal values may be shown once. Toxic doses and inconclusive results are not listed.

For this test, the system named is CD2F1 mice, P388/ADR leukemia ip, median survival T/C. The experiment in a line: NCI In Vivo Anticancer Drug Screen. Data for tumor model P388 Leukemia resistant to Adriamycin; NSC 123127, Developed at Scr 08 (intraperitoneal) in CD2F1 (CDF1) mice. The note with it: endpoint: median survival time, higher = longer survival. How it is done: The antitumor activity of compounds was measured in mice bearing transplantable tumors. Survival or tumor size were measured and the results are expressed as the measurement made in the treated group (T) divided by the measurement made in the vehicle treated control group (C). The tumor model used in this assay is P388 Leukemia resistant to Adriamycin; NSC 123127, Developed at Scr 08 (intraperitoneal) in CD2F1 (CDF1) mice

The mark [1] stands for this setting: dose: 1.56 mg/kg/injection, schedule: Q01DX005 (ip), vehicle: water.
[2] abbreviates: dose: 3.12 mg/kg/injection, schedule: Q01DX005 (ip), vehicle: water.
Setting [3] is: dose: 6.25 mg/kg/injection, schedule: Q01DX005 (ip), vehicle: water.
Where [4] appears, read: dose: 12.5 mg/kg/injection, schedule: Q01DX005 (ip), vehicle: water.
[5] abbreviates: dose: 50.0 mg/kg/injection, schedule: Q01DX005 (ip), vehicle: saline.
[6] abbreviates: dose: 25.0 mg/kg/injection, schedule: Q01DX005 (ip), vehicle: saline.
Where [7] appears, read: dose: 100.0 mg/kg/injection, schedule: Q01DX005 (ip), vehicle: saline.

Regarding `COc1ccc(CCN(C)CCCC(C#N)(c2ccc(OC)c(OC)c2)C(C)C)cc1OC` (stereo unspecified), the T/C is 110 % of control (dose: 8.0 mg/kg/injection, schedule: Q03HX006 (ip), vehicle: saline); 104 % of control (dose: 16.0 mg/kg/injection, schedule: Q03HX006 (ip), vehicle: saline); 103 % of control (dose: 32.0 mg/kg/injection, schedule: Q03HX006 (ip), vehicle: saline).

For `CCOc1ccc(-c2nc3ccc(-c4nc5ccc(N6CCN(C)CC6)cc5[nH]4)cc3[nH]2)cc1`, the T/C was 109 % of control under setting [1], 106 % of control under setting [2], 107 % of control under setting [3] and 91 % of control under setting [4].

Consider `CCN(CC)CCn1[nH]c2c3ccc(=O)cc3sc3c(NCCN)ccc1c32`, for which the T/C reads like this: under setting [1], 99 % of control; under setting [2], 95 % of control; under setting [3], 106 % of control; under setting [4], 91 % of control.

As for `CC1(C)N=C(N)N=C(N)N1c1ccc(CCCCc2ccc(S(=O)(=O)F)cc2Cl)c(Cl)c1`, the T/C is, setting by setting: (dose: 18.0 mg/kg/injection, schedule: Q01DX009 (ip), vehicle: saline with Tween-80) 87 % of control; (dose: 27.0 mg/kg/injection, schedule: Q01DX009 (ip), vehicle: saline with Tween-80) 89 % of control and 101 % of control; (dose: 40.0 mg/kg/injection, schedule: Q01DX009 (ip), vehicle: saline with Tween-80) 88 % of control and 102 % of control; (dose: 60.0 mg/kg/injection, schedule: Q01DX009 (ip), vehicle: saline with Tween-80) 112 % of control; (dose: 90.0 mg/kg/injection, schedule: Q01DX009 (ip), vehicle: saline with Tween-80) 91 % of control and 110 % of control; (dose: 110.0 mg/kg/injection, schedule: Q01DX009 (ip), vehicle: saline with Tween-80) 115 % of control.

For the compound `CNC(=O)OCc1nc(SC)n(C)c1COC(=O)NC`, the T/C reads like this: (dose: 30.0 mg/kg/injection, schedule: Q01DX005 (ip), vehicle: saline) 155 % of control; (dose: 40.0 mg/kg/injection, schedule: Q01DX005 (ip), vehicle: saline) 154 % of control; under setting [5], 158 % of control; (dose: 51.0 mg/kg/injection, schedule: Q01DX005 (ip), vehicle: saline) 163 % of control; (dose: 65.0 mg/kg/injection, schedule: Q01DX005 (ip), vehicle: saline) 155 % of control; (dose: 77.0 mg/kg/injection, schedule: Q01DX005 (ip), vehicle: saline) 91 % of control.

For the compound `O=C(O)c1cc(C(=O)O)c(C(=O)O)cc1C(=O)O.[NH2-].[NH2-].[NH2-].[NH2-].[Pt+2].[Pt+2]`, the T/C (dose: 3.12 mg/kg/injection, schedule: Q01DX005 (ip), vehicle: saline) was 123 % of control; the T/C under setting [6] is 167 % of control; the T/C (dose: 25.0 mg/kg/injection, schedule: Q01DX005 (ip), vehicle: suspension in saline) was 150 % of control; the T/C (dose: 41.67 mg/kg/injection, schedule: Q01DX005 (ip), vehicle: suspension in saline) was 178 % of control.

For the compound `[CH3][Sn]([CH3])([Cl])[c]1cc[c]([Sn]([CH3])([CH3])[Cl])cc1`, the T/C reads like this: (dose: 0.19 mg/kg/injection, schedule: Q01DX005 (ip), vehicle: suspension in saline) 96 % of control; (dose: 0.39 mg/kg/injection, schedule: Q01DX005 (ip), vehicle: suspension in saline) 105 % of control; (dose: 0.78 mg/kg/injection, schedule: Q01DX005 (ip), vehicle: suspension in saline) 114 % of control; (dose: 1.56 mg/kg/injection, schedule: Q01DX005 (ip), vehicle: suspension in saline) 114 % of control.

Take `COc1cccc(Sc2ccc([N+](=O)[O-])c3no[n+]([O-])c23)c1`: the T/C runs as follows: (dose: 1.56 mg/kg/injection, schedule: Q01DX005 (ip), vehicle: saline with Tween-80) 98 % of control; (dose: 3.12 mg/kg/injection, schedule: Q01DX005 (ip), vehicle: saline with Tween-80) 100 % of control; (dose: 6.25 mg/kg/injection, schedule: Q01DX005 (ip), vehicle: saline with Tween-80) 107 % of control; (dose: 12.5 mg/kg/injection, schedule: Q01DX005 (ip), vehicle: saline with Tween-80) 110 % of control; (dose: 25.0 mg/kg/injection, schedule: Q01DX005 (ip), vehicle: saline with Tween-80) 101 % of control.

As to `O=C(Nc1ccccc1)c1c(O)[nH]c(=S)[nH]c1=O`, the T/C (dose: 30.0 mg/kg/injection, schedule: Q01DX009 (ip), vehicle: saline with Tween-80) is 173 % of control; the T/C (dose: 44.0 mg/kg/injection, schedule: Q01DX009 (ip), vehicle: saline with Tween-80) is 181 % of control; the T/C (dose: 67.0 mg/kg/injection, schedule: Q01DX009 (ip), vehicle: saline with Tween-80) was 160 % of control; the T/C (dose: 75.0 mg/kg/injection, schedule: Q01DX009 (ip), vehicle: saline with Tween-80) is 170 % of control; the T/C (dose: 100.0 mg/kg/injection, schedule: Q01DX009 (ip), vehicle: saline with Tween-80) was 173 % of control and 181 % of control; the T/C (dose: 125.0 mg/kg/injection, schedule: Q01DX009 (ip), vehicle: saline with Tween-80) was 195 % of control. For the same compound, the T/C (dose: 150.0 mg/kg/injection, schedule: Q01DX009 (ip), vehicle: saline with Tween-80) was 197 % of control.

As to `CN(Cc1cnc2nc(N)nc(N)c2n1)c1ccc(C(=O)N[C@@H](CCC(=O)O)C(=O)O)cc1`, the T/C is, setting by setting: (dose: 0.38 mg/kg/injection, schedule: Q01DX005 (ip), vehicle: sodium bicarbonate) 122 % of control; (dose: 0.75 mg/kg/injection, schedule: Q01DX005 (ip), vehicle: sodium bicarbonate) 155 % of control; (dose: 1.5 mg/kg/injection, schedule: Q01DX005 (ip), vehicle: sodium bicarbonate) 179 % of control; (dose: 3.0 mg/kg/injection, schedule: Q01DX005 (ip), vehicle: sodium bicarbonate) 191 % of control and 195 % of control.

In the case of `O=P1(N(CCCl)CCCl)NCCCO1` (stereo unspecified), the T/C is, setting by setting: (dose: 12.5 mg/kg/injection, schedule: Q01DX005 (ip), vehicle: saline) 154 % of control; under setting [6], 165 % of control and 189 % of control; under setting [5], 191 % of control and 217 % of control; under setting [7], 171 % of control and 309 % of control.

`[N-]=[N+]=CC(=O)CCC(NC(=O)OCc1ccccc1)C(=O)OCc1ccccc1` (stereo unspecified): the T/C is, setting by setting: (dose: 12.5 mg/kg/injection, schedule: Q01DX005 (ip), vehicle: Klucel (hydroxypropylcellulose) (HPC)) 115 % of control; (dose: 25.0 mg/kg/injection, schedule: Q01DX005 (ip), vehicle: Klucel (hydroxypropylcellulose) (HPC)) 117 % of control; (dose: 36.0 mg/kg/injection, schedule: Q01DX005 (ip), vehicle: Klucel (hydroxypropylcellulose) (HPC)) 100 % of control; (dose: 60.0 mg/kg/injection, schedule: Q01DX005 (ip), vehicle: Klucel (hydroxypropylcellulose) (HPC)) 112 % of control; (dose: 100.0 mg/kg/injection, schedule: Q01DX005 (ip), vehicle: Klucel (hydroxypropylcellulose) (HPC)) 166 % of control; (dose: 200.0 mg/kg/injection, schedule: Q01DX005 (ip), vehicle: Klucel (hydroxypropylcellulose) (HPC)) 165 % of control. For the same compound, the T/C (dose: 278.0 mg/kg/injection, schedule: Q01DX005 (ip), vehicle: Klucel (hydroxypropylcellulose) (HPC)) was 155 % of control.

With `O=CC(CO)CC(C=O)n1cnc2c(=O)[nH]cnc21` (stereo unspecified), the T/C by setting is: under setting [6], 122 % of control and 124 % of control; under setting [7], 151 % of control; (dose: 200.0 mg/kg/injection, schedule: Q01DX005 (ip), vehicle: saline) 160 % of control and 170 % of control; (dose: 400.0 mg/kg/injection, schedule: Q01DX005 (ip), vehicle: saline) 169 % of control and 170 % of control.

With `O=C1NC2(CCCCC2)C(=O)N1CCN(CCCl)CCCl`, the T/C is, setting by setting: (dose: 2.6 mg/kg/injection, schedule: Q01DX009 (ip), vehicle: Klucel (hydroxypropylcellulose) (HPC)) 195 % of control; (dose: 4.0 mg/kg/injection, schedule: Q01DX009 (ip), vehicle: Klucel (hydroxypropylcellulose) (HPC)) 236 % of control; (dose: 6.0 mg/kg/injection, schedule: Q01DX009 (ip), vehicle: Klucel (hydroxypropylcellulose) (HPC)) 226 % of control; (dose: 9.0 mg/kg/injection, schedule: Q01DX009 (ip), vehicle: Klucel (hydroxypropylcellulose) (HPC)) 239 % of control.
